Measurements: ChEMBL document CHEMBL3046395, “Synthesis and pharmacological investigation of novel 3-(benzyl)-2-substituted amino-3H-quinazolin-4-ones as analgesic and anti-inflammatory agents” (Med Chem Res, 2008)

Key:
Rattus norvegicus [1] = assay: Anti-inflammatory activity in Rattus norvegicus (rat) assessed as inhibition of carrageenan-induced paw edema at 20 mg/kg, po measured at 2 hr post carrageenan-challenge (reference value: 5.7+/- 0.32%); type: functional
Rattus norvegicus [2] = assay: Anti-inflammatory activity in Rattus norvegicus (rat) assessed as inhibition of carrageenan-induced paw edema at 10 mg/kg, po measured at 30 min post carrageenan-challenge (reference value: 5.1 +/- 0.29%); type: functional; conditions: 0.5 h
Mus musculus [3] = assay: Analgesic activity in Mus musculus Wistar albino (mouse) at 20 mg/kg, po after 30 min by tail-flick test (reference value: 2 +/- 0.35%); type: functional
Mus musculus [4] = assay: Analgesic activity in Mus musculus Wistar albino (mouse) at 10 mg/kg, po after 2 hr by tail-flick test (reference value: 4 +/- 0.59%); type: functional
Rattus norvegicus [5] = assay: Anti-inflammatory activity in Rattus norvegicus (rat) assessed as inhibition of carrageenan-induced paw edema at 10 mg/kg, po measured at 1 hr post carrageenan-challenge (reference value: 6.1 +/- 0.27%); type: functional
Mus musculus [6] = assay: Analgesic activity in Mus musculus Wistar albino (mouse) at 20 mg/kg, po after 1 hr by tail-flick test (reference value: 6 +/- 0.49%); type: functional
Rattus norvegicus [7] = assay: Anti-inflammatory activity in Rattus norvegicus (rat) assessed as inhibition of carrageenan-induced paw edema at 20 mg/kg, po measured at 30 min post carrageenan-challenge (reference value: 5.1 +/- 0.29%); type: functional; conditions: 0.5 h
Rattus norvegicus [8] = assay: Anti-inflammatory activity in Rattus norvegicus (rat) assessed as inhibition of carrageenan-induced paw edema at 20 mg/kg, po measured at 3 hr post carrageenan-challenge (reference value: 3.2 +/- 0.93%); type: functional
Rattus norvegicus [9] = assay: Anti-inflammatory activity in Rattus norvegicus (rat) assessed as inhibition of carrageenan-induced paw edema at 20 mg/kg, po measured at 1 hr post carrageenan-challenge (reference value: 6.1 +/- 0.27%); type: functional
Mus musculus [10] = assay: Analgesic activity in Mus musculus Wistar albino (mouse) at 10 mg/kg, po after 3 hr by tail-flick test (reference value: 4 +/- 0.91%); type: functional
Mus musculus [11] = assay: Analgesic activity in Mus musculus Wistar albino (mouse) at 10 mg/kg, po after 30 min by tail-flick test (reference value: 2 +/- 0.35%); type: functional
Rattus norvegicus [12] = assay: Anti-inflammatory activity in Rattus norvegicus (rat) assessed as inhibition of carrageenan-induced paw edema at 10 mg/kg, po measured at 2 hr post carrageenan-challenge (reference value: 5.7+/- 0.32%); type: functional
Mus musculus [13] = assay: Analgesic activity in Mus musculus Wistar albino (mouse) at 10 mg/kg, po after 1 hr by tail-flick test (reference value: 6 +/- 0.49%); type: functional
Rattus norvegicus [14] = assay: Anti-inflammatory activity in Rattus norvegicus (rat) assessed as inhibition of carrageenan-induced paw edema at 10 mg/kg, po measured at 3 hr post carrageenan-challenge (reference value: 3.2 +/- 0.93%); type: functional
Rattus norvegicus [15] = assay: Gastrointestinal toxicity in Rattus norvegicus Wistar albino (rat) assessed as ulcer index at 20 mg/kg, ip administered QD for 3 days measured on day 4 (reference value: 0.15 +/- 0.32); type: organism-based; set-up: dose 20 mg/kg, route intraperitoneal; conditions: in vivo, 72 h
Mus musculus [16] = assay: Analgesic activity in Mus musculus Wistar albino (mouse) at 20 mg/kg, po after 2 hr by tail-flick test (reference value: 4 +/- 0.59%); type: functional
Mus musculus [17] = assay: Analgesic activity in Mus musculus Wistar albino (mouse) at 20 mg/kg, po after 3 hr by tail-flick test (reference value: 4 +/- 0.91%); type: functional

Structure (SMILES)	inhibition in vivo at 20 mg/kg (Rattus norvegicus [1])	inhibition in vivo at 10 mg/kg (Rattus norvegicus [2])	Activity (Mus musculus [3])	Activity (Mus musculus [4])	inhibition in vivo at 10 mg/kg (Rattus norvegicus [5])	Activity (Mus musculus [6])	inhibition in vivo at 20 mg/kg (Rattus norvegicus [7])	inhibition in vivo at 20 mg/kg (Rattus norvegicus [8])	inhibition in vivo at 20 mg/kg (Rattus norvegicus [9])	Activity (Mus musculus [10])	Activity (Mus musculus [11])	inhibition in vivo at 10 mg/kg (Rattus norvegicus [12])	Activity (Mus musculus [13])	inhibition in vivo at 10 mg/kg (Rattus norvegicus [14])	UI (Rattus norvegicus [15])	Activity (Mus musculus [16])	Activity (Mus musculus [17])
O=c1c2ccccc2nc(N/N=C/c2ccccc2[N+](=O)[O-])n1Cc1ccccc1	47%	30%	49%	46%	36%	56%	43%	28%	43%	32%	37%	38%	44%	21%	0.87	57%	38%
O=c1c2ccccc2nc(N/N=C/c2ccc([N+](=O)[O-])cc2)n1Cc1ccccc1	49%	31%	46%	42%	31%	48%	42%	31%	45%	34%	38%	37%	42%	24%	0.82	54%	39%
COc1ccc(/C=N/Nc2nc3ccccc3c(=O)n2Cc2ccccc2)cc1	44%	28%	49%	44%	30%	52%	35%	30%	40%	32%	39%	37%	40%	25%	0.83	56%	37%
Cc1ccccc1/C=N/Nc1nc2ccccc2c(=O)n1Cc1ccccc1	51%	39%	52%	48%	42%	58%	45%	36%	47%	32%	44%	45%	48%	28%	0.66	59%	39%
Cc1ccc(/C=N/Nc2nc3ccccc3c(=O)n2Cc2ccccc2)cc1	53%	38%	58%	54%	38%	59%	46%	38%	49%	35%	47%	42%	49%	29%	0.65	61%	40%
O=c1c2ccccc2nc(NN=C(c2ccccc2)c2ccccc2)n1Cc1ccccc1	52%	36%	55%	49%	41%	58%	47%	35%	50%	33%	46%	43%	49%	27%	0.63	59%	41%
CCN(CC)C(=S)Nn1c(-c2ccccc2)nc2ccccc2c1=O	53%	–	–	44%	–	–	–	–	–	–	–	38%	–	–	–	58%	–
Cc1nc2ccccc2c(=O)n1NC(=S)n1cccc1	60%	–	–	50%	–	–	–	–	–	–	–	44%	–	–	–	65%	–
CCN(CC)C(=S)Nn1c(SC)nc2ccccc2c1=O	62%	–	–	56%	–	–	–	–	–	–	–	40%	–	–	–	67%	–
O=c1c2ccccc2nc(NN=C2CCCCC2)n1Cc1ccccc1	58%	36%	51%	54%	38%	58%	45%	32%	52%	34%	42%	45%	46%	25%	0.59	61%	41%
C/C(=N\Nc1nc2ccccc2c(=O)n1Cc1ccccc1)c1ccccc1	58%	40%	57%	57%	41%	62%	48%	33%	53%	30%	45%	46%	47%	27%	0.6	69%	37%
O=C1Nc2ccccc2/C1=N\Nc1nc2ccccc2c(=O)n1Cc1ccccc1	51%	36%	52%	48%	38%	57%	40%	32%	45%	30%	45%	42%	46%	25%	0.62	61%	35%
O=c1c2ccccc2nc(N/N=C/c2ccccc2)n1Cc1ccccc1	47%	35%	51%	48%	39%	59%	41%	35%	45%	31%	45%	40%	48%	27%	0.64	59%	41%
O=c1c2ccccc2nc(N/N=C/c2ccccc2Cl)n1Cc1ccccc1	42%	30%	46%	41%	32%	49%	38%	31%	38%	29%	34%	35%	37%	26%	0.86	53%	35%
O=c1c2ccccc2nc(N/N=C/c2ccc(Cl)cc2)n1Cc1ccccc1	49%	34%	49%	47%	36%	51%	40%	29%	44%	30%	38%	36%	36%	23%	0.89	54%	36%
CC(=O)Oc1ccccc1C(=O)O [ASPIRIN]	–	–	–	–	–	–	–	–	–	–	–	–	–	–	1.73	–	–
